Assay results: patent US8247403B2, “Benzoxazepine derivatives and use thereof” (Takeda Pharmaceutical Company Limited, priority 2007, dated 2012)
Structures can show the parent of a compound that is named as a salt.

Experiments:
[1] = molecular target: serotonin 5-HT2C receptor (Homo sapiens, UniProt P28335, I156V/I160V/N158S); test: cell-based; settings: CHO, read-out: ratio to maximum response by 5-HT (1 μM)
[2] = tested on: female spinal cord transected rat whose hypogastric nerve and pudendal nerves were bilaterally cut; test: Urethral closure response induced by increased bladder pressure in rat with hypogastric and pudendal nerves cut; type: in vivo
Procedure: SD female rats (body weight 230-274 g) were anesthetized with urethane (Wako Pure Chemical Industries, Ltd.), and the spinal cord was cut at T8-9 level to eliminate the micturition reflex. During the operation, halothane (Takeda Pharmaceutical Company Limited) anesthesia was added as necessary. The abdomen was opened, the bladder neck was ligated with a suture thread, and then, the hypogastric nerve and the pudendal nerves were bilaterally cut. A catheter (PE-90, Clay Adams) was inserted in the bladder, and the other end of the bladder catheter was connected to the pressure transducer and an aquatic reservoir (60 ml syringe) of saline via a three-way cock. A microchip transducer catheter (SPR-524, Millar Instruments Inc.) was inserted from the urethral orifice toward the bladder, and the transducer part was adjusted to be in the urethra at 10.0-15.0 mm from the urethral orifice using the scale on the catheter surface. The topical changes in the urethral pressure (hereinafter to be referred to as urethral pressure for convenience) measured by the microchip transducer were input into a computer via an amplifier (BP Amp; ADINSTRUMENTS) and a data analyzer (Powerlab 4/25; ADINSTRUMENTS; sampled at 1000 Hz), and recorded on a hard disk. […] The response of the urethra induced by the increased bladder pressure was repeatedly measured, and the average value of the last two measures was taken as the value before drug administration. The evaluation item was reflective urethral closure response, and the average urethral pressure for 30 seconds before increasing the bladder pressure and 30 seconds when the bladder pressure was raised to 50 cm was calculated. Then, the value before bladder pressure increase was subtracted from the value during bladder pressure increase and taken as the urethral closure response. […] The drug was dissolved in saline with dimethylformamide, and intravenously administered at 1 ml/kg.

Chain of serotonin 5-HT2C receptor (P28335 33-458 I156V/N158S/I160V limits assumed): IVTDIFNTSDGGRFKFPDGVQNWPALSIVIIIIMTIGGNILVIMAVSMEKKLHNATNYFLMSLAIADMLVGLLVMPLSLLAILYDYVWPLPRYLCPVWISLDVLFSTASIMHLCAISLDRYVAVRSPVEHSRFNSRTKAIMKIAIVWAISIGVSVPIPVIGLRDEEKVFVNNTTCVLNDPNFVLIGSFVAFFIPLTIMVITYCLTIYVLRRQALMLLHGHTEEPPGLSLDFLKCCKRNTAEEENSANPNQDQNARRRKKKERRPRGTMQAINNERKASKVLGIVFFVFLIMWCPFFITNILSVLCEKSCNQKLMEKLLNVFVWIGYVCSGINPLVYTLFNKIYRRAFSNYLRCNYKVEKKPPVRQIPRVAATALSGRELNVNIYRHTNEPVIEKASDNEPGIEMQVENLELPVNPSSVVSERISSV

SMILES | activation at 1 µM [1] | other results
FC(F)(F)c1ccccc1-c1cccc2c1OCCNC2 [Example 12, 9-[2-(trifluoromethyl)phenyl]-2,3,4,5-tetrahydro-1,4-benzoxazepine hydrochloride] | 93.6% | –
Clc1ccccc1-c1cccc2c1OCCNC2 [Example 10, 9-(2-chlorophenyl)-2,3,4,5-tetrahydro-1,4-benzoxazepine hydrochloride] | 94% | –
CCN(CC)c1ccc2c(c1)OCCNC2 [Example 5, N,N-diethyl-2,3,4,5-tetrahydro-1,4-benzoxazepine-8-amine dihydrochloride] | 91.9% | –
c1cc2c(c(-c3ccsc3)c1)OCCNC2 [Example 16, 9-(3-thienyl)-2,3,4,5-tetrahydro-1,4-benzoxazepine hydrochloride] | 99.1% | –
C1=C(c2cccc3c2OCCNC3)CCC1 [Example 26, 9-(cyclopenta-1-en-1-yl)-2,3,4,5-tetrahydro-1,4-benzoxazepine hydrochloride] | 101% | –
Cc1ccccc1-c1cccc2c1OCCNC2 [Example 11, 9-(2-methylphenyl)-2,3,4,5-tetrahydro-1,4-benzoxazepine hydrochloride] | 92.7% | –
Cl.c1cc2c(c(C3CCC3)c1)OCCNC2 [Example 63, 9-cyclobutyl-2,3,4,5-tetrahydro-1,4-benzoxazepine hydrochloride] | 97.6% | Urethral closure response, after drug administration ([2]; 3 mg/kg i.v., 10 min after administration, n=6, bladder pressure raised to 50 cm H2O): 6.2 ± 0.9 cm H2O; Urethral closure response, increase ([2]; 3 mg/kg i.v., difference between after and before drug administration, P < 0.001 vs vehicle): 4.4 ± 0.7 cm H2O; Urethral closure response, before drug administration ([2]; baseline of the 3 mg/kg i.v. group, n=6, bladder pressure raised to 50 cm H2O): 1.8 ± 0.5 cm H2O; effect on urethral closure response induced by increased bladder pressure (in words) ([2]; intravenous administration, bladder pressure 0 to 50 cm H2O): significantly increased the urethral closure response
c1cc2c(c(C3CC3)c1)OCCNC2 [Example 64, 9-cyclopropyl-2,3,4,5-tetrahydro-1,4-benzoxazepine hydrochloride] | 94.6% | –
FC1(F)CCN(c2cccc3c2OCCNC3)C1 [Example 58, 9-(3,3-difluoropyrrolidin-1-yl)-2,3,4,5-tetrahydro-1,4-benzoxazepine] | 95.5% | –
c1ccc(-c2cccc3c2OCCNC3)cc1 [Example 9, 9-phenyl-2,3,4,5-tetrahydro-1,4-benzoxazepine hydrochloride] | 93.1% | –
c1cc2c(cc1N1CCCCC1)OCCNC2 [Example 3, 8-(piperidin-1-yl)-2,3,4,5-tetrahydro-1,4-benzoxazepine dihydrochloride] | 94.3% | –
c1cc2c(cc1N1CCOCC1)OCCNC2 [Example 1, 8-(morpholin-4-yl)-2,3,4,5-tetrahydro-1,4-benzoxazepine hydrochloride] | 95.4% | –
c1cc2c(c(-c3ccoc3)c1)OCCNC2 [Example 15, 9-(3-furyl)-2,3,4,5-tetrahydro-1,4-benzoxazepine hydrochloride] | 96.2% | –
c1cc2c(c(C3CCOC3)c1)OCCNC2 (centres unmarked) [Example 55, 9-(tetrahydrofuran-3-yl)-2,3,4,5-tetrahydro-1,4-benzoxazepine hydrochloride] | 103% | –
c1cc2c(cc1N1CCCC1)OCCNC2 [Example 2, 8-(pyrrolidin-1-yl)-2,3,4,5-tetrahydro-1,4-benzoxazepine dihydrochloride] | 93.1% | –
c1cc2c(c(N3CCCC3)c1)OCCNC2 [Example 7, 9-(pyrrolidin-1-yl)-2,3,4,5-tetrahydro-1,4-benzoxazepine dihydrochloride] | 107% | –
CC(C)N(C)c1ccc2c(c1)OCCNC2 [Example 4, N-isopropyl-N-methyl-2,3,4,5-tetrahydro-1,4-benzoxazepine-8-amine dihydrochloride] | 100% | –
CCN(C)c1ccc2c(c1)OCCNC2 [Example 6, N-ethyl-N-methyl-2,3,4,5-tetrahydro-1,4-benzoxazepine-8-amine dihydrochloride] | 102% | –
CC(c1cccc2c1OCCNC2)C(F)(F)F (centres unmarked) [Example 59, 9-(2,2,2-trifluoro-1-methylethyl)-2,3,4,5-tetrahydro-1,4-benzoxazepine hydrochloride] | 95.2% | –
